In PubChem BioAssay AID488827 (NMMLSC, 2010):
The source made the active and inactive calls.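 Rule for the calls: active = EC50 at or below 33 µM; inactive = the rest.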

Test system: S. cerevisiae CIT2-GFP strain, flow cytometry GFP, 3 h
Test: CIT2-GFP expression modulators in yeast, SAR follow-up, flow cytometry, KU analogs, dose response (AID 488827)

| Structure (SMILES) | EC50 |
| --- | --- |
| O=C1ON=C(c2ccccc2)/C1=C\c1ccco1 | 188 µM (inactive) |
| Clc1ccc(N=c2ssnc2Cl)cc1 | 81.1 µM (inactive) |
| Cc1ccc(C(c2cc(Cl)c3cccnc3c2O)N2CCN(C)CC2)cc1 (configuration not stated) | 45.9 µM (inactive) |
| O=C(Oc1c(Cl)cc(Cl)c2cccnc12)c1cccc([N+](=O)[O-])c1 | 251 µM (inactive) |
| C/C(=N\NC(=O)c1ccc(C(C)(C)C)cc1)c1ccccn1 | 71 µM (inactive) |
| O=C(Nc1nc(-c2ccccn2)cs1)c1cc2ccccc2o1 | 60.6 µM (inactive) |
| CCOC(=O)CCS(=O)(=O)c1nc(-c2ccccc2)cc(C(F)(F)F)n1 | 107 µM (inactive) |
| COc1ccc([N+](=O)[O-])c(S(=O)(=O)c2ccc(Cl)cc2)n1 | 124 µM (inactive) |
| Cc1ccc(/C=C2/C(=O)ON=C2c2ccccc2)o1 | 39.6 µM (inactive) |
| O=C(Oc1c(Cl)cc(Cl)c2cccnc12)c1ccco1 | 87.4 µM (inactive) |
| CC(C)(C)C(=O)NC(=S)NNC(=O)c1ccc(-c2ccccc2)cc1 | 66.9 µM (inactive) |
| Cc1c(C(=O)Nc2nc(-c3ccccn3)cs2)oc2ccccc12 | 161 µM (inactive) |
| CCOC(=O)CS(=O)(=O)c1nc(-c2ccccc2)cc(C(F)(F)F)n1 | 109 µM (inactive) |
| O=[N+]([O-])c1cc(Cl)c2cccnc2c1O | 33 µM (inactive) |
| Oc1c(I)cc(I)c2cccnc12 | 166 µM (inactive) |
| COc1ccc([N+](=O)[O-])c(S(=O)(=O)c2ccccc2)n1 | > 300 µM (inactive) |
| CSC1=NS(=O)(=O)c2c(C)nn(C)c2S1 | 294 µM (inactive) |
| CN1CCN(C(c2ccc(C(F)(F)F)cc2)c2ccc3cccnc3c2O)CC1 (configuration not stated) | 87.1 µM (inactive) |
| CCOC(=O)CSC1=NC(=O)/C(=C\c2ccc(Cl)cc2)S1 | 120 µM (inactive) |
| O=C(Oc1ccnc2cc(Cl)ccc12)N1CCCCCC1 | 298 µM (inactive) |
| O=S(=O)(CCN(CCS(=O)(=O)C(F)(F)F)CC1CCCO1)C(F)(F)F (configuration not stated) | 65.2 µM (inactive) |
| Cc1ccc(S(=O)(=O)c2ncccc2[N+](=O)[O-])cc1 | 191 µM (inactive) |

Now from value to compound:

| EC50 | Structure (SMILES) |
| --- | --- |
| 19.1 µM | CNc1nc(N)c([N+](=O)[O-])c(Nc2ccccc2)n1 |
| 61.4 µM (inactive) | Nc1nc(Nc2ccccc2)nc(Nc2cccc(F)c2)c1[N+](=O)[O-] |
| 279 µM (inactive) | CN(C)CCCNc1nc(N)c([N+](=O)[O-])c(Nc2cccc(F)c2)n1 |
| 3.75 µM | CNc1nc(N)c([N+](=O)[O-])c(NC2CCCCC2)n1 |
| 1.07 µM | CNc1nc(N)c([N+](=O)[O-])c(Nc2cccc(Cl)c2)n1 |
| 93.3 µM (inactive) | Nc1nc(NCCc2ccccc2)nc(Nc2cccc(F)c2)c1[N+](=O)[O-] |
| 3.99 µM | CNc1nc(N)c([N+](=O)[O-])c(Nc2ccccc2OC)n1 |
| 56.3 µM (inactive) | CNc1nc(N)c([N+](=O)[O-])c(Nc2ccc(F)cc2)n1 |
| 36.6 µM (inactive) | Nc1nc(Nc2cccc(F)c2)nc(Nc2cccc(F)c2)c1[N+](=O)[O-] |
| 2.52 µM | CNc1nc(N)c([N+](=O)[O-])c(Nc2cccc(F)c2)n1 |
